According to patent publication US20100317863A1, “Glucocorticoid Mimetics, Methods of Making Them, Pharmaceutical Compositions and Uses Thereof” (BOEHRINGER INGELHEIM INTERNATIONAL GMBH, priority 2007, published 2010):

These compounds were tested against T1, human glucocorticoid receptor (GR) complex (Homo sapiens, UniProt P04150) (assay: Glucocorticoid Receptor Competitive Binding Assay (fluorescence polarization)). Details: competition with TAMRA-labeled dexamethasone; potent activity.
T1 construct: made in house; host or cells: insect expression system (baculovirus lysate)
T1 sequence (P04150 1-777): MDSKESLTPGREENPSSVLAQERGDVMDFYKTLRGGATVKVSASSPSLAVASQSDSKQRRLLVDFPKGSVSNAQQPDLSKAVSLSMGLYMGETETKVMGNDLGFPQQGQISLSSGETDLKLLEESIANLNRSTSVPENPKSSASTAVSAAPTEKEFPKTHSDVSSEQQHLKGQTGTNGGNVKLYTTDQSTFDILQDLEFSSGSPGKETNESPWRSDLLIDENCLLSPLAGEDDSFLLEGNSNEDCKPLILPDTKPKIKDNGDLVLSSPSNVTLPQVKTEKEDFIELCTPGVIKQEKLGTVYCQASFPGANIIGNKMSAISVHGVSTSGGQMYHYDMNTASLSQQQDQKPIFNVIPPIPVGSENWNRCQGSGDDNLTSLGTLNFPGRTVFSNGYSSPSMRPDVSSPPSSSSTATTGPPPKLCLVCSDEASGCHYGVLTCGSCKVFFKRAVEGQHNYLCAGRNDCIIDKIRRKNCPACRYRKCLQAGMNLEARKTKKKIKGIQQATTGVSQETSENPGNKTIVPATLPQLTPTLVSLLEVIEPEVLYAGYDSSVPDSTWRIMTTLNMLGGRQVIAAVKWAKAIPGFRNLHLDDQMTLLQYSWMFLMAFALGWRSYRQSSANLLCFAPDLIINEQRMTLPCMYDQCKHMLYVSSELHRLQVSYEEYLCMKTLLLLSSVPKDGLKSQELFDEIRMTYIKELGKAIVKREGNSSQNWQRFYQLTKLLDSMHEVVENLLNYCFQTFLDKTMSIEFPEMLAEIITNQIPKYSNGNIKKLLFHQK
Protocol: Compounds of the invention were evaluated for binding to the steroid receptor by a fluorescence polarization competitive binding assay. Detailed descriptions for preparation of recombinant glucocorticoid receptor (GR) complex used in the assay is described in U.S. Patent Application Publication No. US 2003/0017503, filed May 20, 2002, and incorporated herein by reference in its entirety. Preparation of the tetramethylrhodamine (TAMRA)-labeled dexamethasone probe was accomplished using a standard literature procedure (M. Pons et al., J. Steroid Biochem., 1985, 22, pp. 267-273).
This assay uses fluorescence polarization (FP) to quantitate the ability of test compounds to compete with tetramethylrhodamine (TAMRA)-labeled dexamethasone for binding to a human glucocorticoid receptor (GR) complex prepared from an insect expression system. The assay buffer was: 10 mM TES, 50 mM KCl, 20 mM Na2MoO4.2H2O, 1.5 mM EDTA, 0.04% w/v CHAPS, 10% v/v glycerol, 1 mM dithiothreitol, pH 7.4. Test compounds were dissolved to 1 mM in neat DMSO and then further diluted to 10× assay concentration in assay buffer supplemented with 10% v/v DMSO. Test compounds were serially diluted at 10× assay concentrations in 10% DMSO-containing buffer in 96-well polypropylene plates. Binding reaction mixtures were prepared in 96-well black Dynex microtiter plates by sequential addition of the following assay components to each well: 15 μL of 10× test compound solution, 85 μL of GR-containing baculovirus lysate diluted 1:170 in assay buffer, and 50 μL of 15 nM TAMRA-labeled dexamethasone. Positive controls were reaction mixtures containing no test compound; negative controls (blanks) were reaction mixtures containing 0.7 μM to 2 μM dexamethasone. The binding reactions were incubated for 1 hour at room temperature and then read for fluorescence polarization in the LJL Analyst set to 550 nm excitation and 580 nm emission, with the Rhodamine 561 dichroic mirror installed. IC50 values were determined by iterative non-linear curve fitting of the FP signal data to a 4-parameter logistic equation.

IC50, ≤ 100 nM:
CC[C@@H](Cn1ccc2ccccc21)NS(=O)(=O)c1c(N)cc(Cl)cc1Cl [2-Amino-4,6-dichloro-N—((S)-1-indol-1-ylmethylpropyl)benzenesulfonamide]
CC(C)[C@@H](Cn1cc(C#N)c2ccccc21)NS(=O)(=O)c1c(N)cc(Cl)cc1Cl [2-Amino-4,6-dichloro-N—[(S)-1-(3-cyanoindol-1-ylmethyl)-2-methylpropyl]benzenesulfonamide]
CC[C@@H](Cn1cc(CC#N)c2ccccc21)NS(=O)(=O)c1c(C)cc(C)cc1N [2-Amino-N—[(S)-1-(3-cyanomethylindol-1-ylmethyl)propyl]-4,6-dimethylbenzenesulfonamide]
Cc1cc(C)c(S(=O)(=O)NC(Cn2ccc3ccccc32)C(C)C)c(C)c1 (stereo not shown) [N-(1-Indol-1-ylmethyl-2-methylpropyl)-2,4,6-trimethylbenzenesulfonamide]
CC[C@@H](Cn1cc(C)c2ccccc21)NS(=O)(=O)c1c(C)cc(C)cc1N [2-Amino-4,6-dimethyl-N—[(S)-1-(3-methylindol-1-ylmethyl)propyl]benzenesulfonamide]
CC[C@@H](Cn1cc(CC#N)c2ccccc21)NS(=O)(=O)c1c(C)cc(C)cc1C [N—[(S)-1-(3-Cyanomethylindol-1-ylmethyl)propyl]-2,4,6-trimethylbenzenesulfonamide]
CC[C@@H](Cn1cc(C#N)c2cccc(F)c21)N(C)S(=O)(=O)c1c(C)cc(C)cc1N [2-Amino-N—[(S)-1-(3-cyano-7-fluoroindol-1-ylmethyl)propyl]-4,6,N-trimethylbenzenesulfonamide]
Cc1cc(C)c(S(=O)(=O)N[C@H](Cn2cc(C#N)c3ccccc32)C(C)C)c(N)c1 [2-Amino-N—[(S)-1-(3-cyanoindol-1-ylmethyl)-2-methylpropyl]-4,6-dimethylbenzenesulfonamide]
CC[C@@H](Cn1cc(C#N)c2ccccc21)NS(=O)(=O)c1c(N)cc(Cl)cc1Cl [2-Amino-4,6-dichloro-N—[(S)-1-(3-cyanoindol-1-ylmethyl)propyl]benzenesulfonamide]
CC[C@@H](Cn1c(C)c(C#N)c2ccccc21)NS(=O)(=O)c1c(C)cc(C)cc1C [N—[(S)-1-(3-Cyano-2-methylindol-1-ylmethyl)propyl]-2,4,6-trimethylbenzenesulfonamide]
CC[C@@H](Cn1cc(C)c2ccccc21)NS(=O)(=O)c1c(C)cc(C)cc1[N+](=O)[O-] [2,4-Dimethyl-N—[(S)-1-(3-methylindol-1-ylmethyl)propyl]-6-nitrobenzenesulfonamide]
CCC(Cn1cc(C)c2ccccc21)NS(=O)(=O)c1c(N)cc(Cl)cc1Cl (stereo not shown) [2-Amino-4,6-dichloro-N-[1-(3-methylindol-1-ylmethyl)propyl]benzenesulfonamide]
CC[C@@H](Cn1cc(C)c2ccccc21)NS(=O)(=O)c1c(N)cc(Cl)cc1Cl [2-Amino-4,6-dichloro-N—[(S)-1-(3-methylindol-1-ylmethyl)propyl]benzenesulfonamide]
CC[C@@H](Cn1cc(C)c2ccccc21)NS(=O)(=O)c1c(C)cc(C)cc1C [2,4,6-Trimethyl-N—[(S)-1-(3-methylindol-1-ylmethyl)propyl]benzenesulfonamide]
CC[C@@H](Cn1ccc2cc(C(=O)OC)ccc21)NS(=O)(=O)c1c(C)cc(C)cc1C [1-[(S)-2-(2,4,6-Trimethylbenzenesulfonylamino)butyl]-1H-indole-5-carboxylic acid methyl ester]
Cc1cn(C[C@@H](NS(=O)(=O)c2c(N)cc(Cl)cc2Cl)C(C)C)c2ccccc12 [2-Amino-4,6-dichloro-N—[(S)-2-methyl-1-(3-methylindol-1-ylmethyl)propyl]benzenesulfonamide]
Cc1cc(C)c(S(=O)(=O)N[C@@H](C)Cn2cc(CC#N)c3ccccc32)c(N)c1 [2-Amino-N—[(S)-2-(3-cyanomethylindol-1-yl)-1-methylethyl]-4,6-dimethylbenzenesulfonamide]
CC[C@@H](Cn1cc(-c2ccccc2)c2ccccc21)NS(=O)(=O)c1c(N)cc(Cl)cc1Cl [2-Amino-4,6-dichloro-N—[(S)-1-(3-phenylindol-1-ylmethyl)propyl]benzenesulfonamide]
CCC(Cn1cc(C)c2ccccc21)NS(=O)(=O)c1c(C)cc(C)cc1C (stereo not shown) [2,4,6-Trimethyl-N-[1-(3-methylindol-1-ylmethyl)propyl]benzenesulfonamide]
CC[C@@H](Cn1cc(C)c2cccc(F)c21)NS(=O)(=O)c1c(C)cc(C)cc1N [2-Amino-N—[(S)-1-(7-fluoro-3-methylindol-1-ylmethyl)propyl]-4,6-dimethylbenzenesulfonamide]
Cc1cc(C)c(S(=O)(=O)N[C@@H](C)Cn2cc(CC#N)c3cc(F)ccc32)c(N)c1 [2-Amino-N—[(S)-2-(3-cyanomethyl-5-fluoroindol-1-yl)-1-methylethyl]-4,6-dimethylbenzenesulfonamide]
CC[C@@H](CN1CCCc2cc(Br)ccc21)NS(=O)(=O)c1c(C)cc(C)cc1C [N—[(S)-1-(6-Bromo-3,4-dihydro-2H-quinolin-1-ylmethyl)propyl]-2,4,6-trimethylbenzenesulfonamide]
CC[C@@H](Cn1cc(C#N)c2ccccc21)NS(=O)(=O)c1c(C)cc(C)cc1C [N—[(S)-1-(3-Cyanoindol-1-ylmethyl)propyl]-2,4,6-trimethylbenzenesulfonamide]
Cc1cc(C)c(S(=O)(=O)N[C@@H](C)Cn2cc(C)c3ccccc32)c([N+](=O)[O-])c1 [2,4-Dimethyl-N—[(S)-1-methyl-2-(3-methylindol-1-yl)-ethyl]-6-nitrobenzenesulfonamide]
Cc1ccc2c(c1)CCCN2CC(NS(=O)(=O)c1c(Cl)cc(Cl)cc1Cl)C(C)C (stereo not shown) [2,4,6-Trichloro-N-[2-methyl-1-(6-methyl-3,4-dihydro-2H-quinolin-1-ylmethyl)propyl]benzenesulfonamide]
Cc1cc(C)c(S(=O)(=O)N[C@@H](C)Cn2cc(C#N)c3ccccc32)c(N)c1 [2-Amino-N—[(S)-2-(3-cyanoindol-1-yl)-1-methylethyl]-4,6-dimethylbenzenesulfonamide]
CC[C@@H](CN1CCCc2cc(C#N)ccc21)NS(=O)(=O)c1c(C)cc(C)cc1C [N—[(S)-1-(6-Cyano-3,4-dihydro-2H-quinolin-1-ylmethyl)propyl]-2,4,6-trimethylbenzenesulfonamide]
CC[C@@H](Cn1cc(C(N)=O)c2cc(F)ccc21)NS(=O)(=O)c1c(Cl)cc(Br)cc1Cl [1-[(S)-2-(4-Bromo-2,6-dichlorobenzenesulfonylamino)butyl]-5-fluoro-1H-indole-3-carboxylic acid amide]
CC[C@@H](Cn1cc(C#N)c2cc(F)ccc21)NS(=O)(=O)c1c(Cl)cc(-c2ccc(N(C)C)cc2)cc1Cl [3,5-Dichloro-4′-dimethylaminobiphenyl-4-sulfonic acid [(S)-1-(3-cyano-5-fluoroindol-1-ylmethyl)propyl]amide]
Cc1cc(C)c(S(=O)(=O)NC(CN2CCCc3ccccc32)C(C)C)c(C)c1 (stereo not shown) [N-[1-(3,4-Dihydro-2H-quinolin-1-ylmethyl)-2-methylpropyl]-2,4,6-trimethylbenzenesulfonamide]
Cc1cc(C)c(S(=O)(=O)NC(Cn2ccc3ccccc32)C(C)(C)C)c(C)c1 (stereo not shown) [N-(1-Indol-1-ylmethyl-2,2-dimethylpropyl)-2,4,6-trimethylbenzenesulfonamide]
